According to ChEMBL document CHEMBL1201862, “PubChem BioAssay data set” (2004):
The source made the active and inactive calls.

Assays:
[1] = molecular target: Fructose-bisphosphate aldolase (Mycobacterium tuberculosis, UniProt P9WQA3); test: Fluorescence-based biochemical high throughput dose response assay for inhibitors of the fructose-bisphosphate aldolase (FBA) of M. tuberculosis.; assay type: functional
[2] = molecular target: Arf-GAP with SH3 domain, ANK repeat and PH domain-containing protein 1 (Homo sapiens, UniProt Q9ULH1); assay type: functional;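 note: biochemical fluorescence polarization dose–response screen measuring inhibition of ASAP1; ASAP1 GAP domain stimulating GTP hydrolysis by truncated human ARF1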
Sequence of Arf-GAP with SH3 domain, ANK repeat and PH domain-containing protein 1 (Q9ULH1 whole entry, the tested form may be a part): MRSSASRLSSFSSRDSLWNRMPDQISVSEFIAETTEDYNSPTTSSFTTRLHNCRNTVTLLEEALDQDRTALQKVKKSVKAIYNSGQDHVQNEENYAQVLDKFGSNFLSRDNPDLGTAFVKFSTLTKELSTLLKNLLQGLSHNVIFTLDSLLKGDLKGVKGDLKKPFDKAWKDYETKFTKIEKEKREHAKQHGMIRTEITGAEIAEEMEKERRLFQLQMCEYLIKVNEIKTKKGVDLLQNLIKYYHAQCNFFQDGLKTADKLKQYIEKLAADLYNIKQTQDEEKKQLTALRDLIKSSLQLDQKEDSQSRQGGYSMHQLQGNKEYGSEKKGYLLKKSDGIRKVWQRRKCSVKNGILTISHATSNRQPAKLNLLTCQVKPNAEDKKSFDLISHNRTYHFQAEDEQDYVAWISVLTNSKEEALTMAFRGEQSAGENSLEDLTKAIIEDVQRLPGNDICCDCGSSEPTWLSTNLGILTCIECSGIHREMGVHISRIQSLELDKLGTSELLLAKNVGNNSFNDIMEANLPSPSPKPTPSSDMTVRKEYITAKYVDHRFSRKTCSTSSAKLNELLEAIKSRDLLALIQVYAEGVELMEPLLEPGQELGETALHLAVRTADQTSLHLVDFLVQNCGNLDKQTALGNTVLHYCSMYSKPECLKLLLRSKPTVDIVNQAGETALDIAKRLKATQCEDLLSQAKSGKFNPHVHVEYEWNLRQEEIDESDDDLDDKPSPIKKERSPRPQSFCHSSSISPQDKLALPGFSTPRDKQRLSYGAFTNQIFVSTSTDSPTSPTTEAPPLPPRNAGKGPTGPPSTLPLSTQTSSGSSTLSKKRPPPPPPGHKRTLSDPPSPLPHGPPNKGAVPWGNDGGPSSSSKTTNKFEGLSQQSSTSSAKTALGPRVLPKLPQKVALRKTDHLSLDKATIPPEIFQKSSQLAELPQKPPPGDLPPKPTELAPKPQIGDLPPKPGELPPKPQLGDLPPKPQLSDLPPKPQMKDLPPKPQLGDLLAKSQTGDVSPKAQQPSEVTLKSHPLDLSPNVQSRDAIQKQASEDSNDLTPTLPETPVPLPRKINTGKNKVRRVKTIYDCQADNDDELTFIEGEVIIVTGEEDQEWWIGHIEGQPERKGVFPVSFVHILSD

[3] = molecular target: ADP-ribosylation factor GTPase-activating protein 1 (Rattus norvegicus, UniProt Q62848); test: Fluorescence polarization-based biochemical high throughput dose response screening assay to identify inhibitors of ADP-ribosylation factor GTPase activating protein 1 (ARFGAP1).; assay type: functional
Sequence of ADP-ribosylation factor GTPase-activating protein 1 (Q62848 whole entry): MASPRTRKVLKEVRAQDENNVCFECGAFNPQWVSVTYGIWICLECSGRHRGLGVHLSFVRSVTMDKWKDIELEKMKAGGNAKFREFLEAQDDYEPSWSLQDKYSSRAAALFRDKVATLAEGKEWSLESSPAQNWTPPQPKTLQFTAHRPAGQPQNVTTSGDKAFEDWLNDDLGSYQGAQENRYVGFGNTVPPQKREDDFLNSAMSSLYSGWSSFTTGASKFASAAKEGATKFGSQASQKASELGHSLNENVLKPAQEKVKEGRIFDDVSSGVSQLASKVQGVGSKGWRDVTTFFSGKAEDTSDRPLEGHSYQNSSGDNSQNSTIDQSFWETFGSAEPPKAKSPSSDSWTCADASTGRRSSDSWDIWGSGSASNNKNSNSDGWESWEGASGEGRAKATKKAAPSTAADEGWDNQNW

[4] = Counterscreen for inhibitors of Trypanosoma brucei methionyl tRNA synthetase (MetRS): Luminescence-based cell-based high throughput dose response assay to identify compounds that are cytotoxic to Jurkat human T lymphocyte cells.; assay type: functional
[5] = viability loss in HeLa cells – cytotoxicity control for MgcRacGAP inhibitor project, dose response (AID 624300); assay type: functional
[6] = molecular target: T1, Rac GTPase-activating protein 1 (Homo sapiens, UniProt Q9H0H5); test: blockers of MgcRacGAP-driven Rac1 GTP hydrolysis – biochemical, ADP Hunter fluorescence, primary and confirmatory, confirmation (AID 624330); assay type: functional
T1 sequence (Q9H0H5 whole entry): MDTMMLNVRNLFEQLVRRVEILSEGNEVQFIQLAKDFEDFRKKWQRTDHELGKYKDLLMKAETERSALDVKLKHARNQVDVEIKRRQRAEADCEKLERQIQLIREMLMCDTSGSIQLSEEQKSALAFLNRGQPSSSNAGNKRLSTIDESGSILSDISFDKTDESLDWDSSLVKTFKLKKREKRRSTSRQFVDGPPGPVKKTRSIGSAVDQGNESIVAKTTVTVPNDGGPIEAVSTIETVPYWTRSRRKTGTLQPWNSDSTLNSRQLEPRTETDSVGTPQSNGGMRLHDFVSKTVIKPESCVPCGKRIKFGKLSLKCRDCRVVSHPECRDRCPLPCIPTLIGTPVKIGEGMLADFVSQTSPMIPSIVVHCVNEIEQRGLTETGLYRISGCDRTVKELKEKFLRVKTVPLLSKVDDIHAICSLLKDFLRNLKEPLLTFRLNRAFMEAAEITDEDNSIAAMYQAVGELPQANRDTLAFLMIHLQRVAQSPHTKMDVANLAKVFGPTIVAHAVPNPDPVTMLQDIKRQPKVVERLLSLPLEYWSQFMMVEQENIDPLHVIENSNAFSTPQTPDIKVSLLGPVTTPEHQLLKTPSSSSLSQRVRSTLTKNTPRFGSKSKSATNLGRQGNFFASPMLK

[7] = A549 cell cytotoxicity, dose response, cytotoxicity control, plate reader, cherry-pick, antagonist series (AID 743412); assay type: functional, cell-based
[8] = blockers of bursicon-stimulated LGR2 cAMP reporter – cell-based, HEK293, CRE-luciferase reporter, cherry pick, set 2, dose response (AID 743343); assay type: functional;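 note: transfected cells were stimulated with diluted bursicon conditioned medium after compound addition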
[9] = Luminescence Cell-Based Dose Confirmation HTS to Identify Inhibitors of Platelet Dense Granule Release. [Related pubchem assays: 1663 (Primary HTS), 1678 (Summary of Project)]; assay type: functional
[10] = molecular target: Luciferin 4-monooxygenase (Photinus pyralis, UniProt P08659); test: inhibition of purified Photinus pyralis luciferase – biochemical, luminescence, dose response (AID 1891)
Sequence of Luciferin 4-monooxygenase (P08659 whole entry): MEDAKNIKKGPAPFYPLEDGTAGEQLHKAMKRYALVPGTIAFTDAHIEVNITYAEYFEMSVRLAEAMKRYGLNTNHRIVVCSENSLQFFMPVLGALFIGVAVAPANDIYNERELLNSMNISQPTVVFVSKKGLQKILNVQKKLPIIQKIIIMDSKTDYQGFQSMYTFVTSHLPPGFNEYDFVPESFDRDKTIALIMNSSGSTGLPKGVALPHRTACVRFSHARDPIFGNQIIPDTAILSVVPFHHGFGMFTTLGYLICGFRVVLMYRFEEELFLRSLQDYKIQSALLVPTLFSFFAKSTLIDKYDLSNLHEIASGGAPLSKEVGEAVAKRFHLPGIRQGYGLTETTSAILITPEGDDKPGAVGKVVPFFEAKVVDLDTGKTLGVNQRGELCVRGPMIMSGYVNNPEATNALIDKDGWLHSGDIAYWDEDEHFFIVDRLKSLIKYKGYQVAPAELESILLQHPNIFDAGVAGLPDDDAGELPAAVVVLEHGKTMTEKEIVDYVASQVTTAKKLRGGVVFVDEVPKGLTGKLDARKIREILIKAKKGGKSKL

[11] = blockade of melanocortin 4 receptor signaling – cell-based, plate reader, cherry pick, counter-screen for LGR2 antagonist project, dose response (AID 743444); assay type: functional;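 note: transfected HEK 293 cells stimulated with alpha-MSH peptide; potency of inhibitors of the alpha-MSH evoked signal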
Aminopeptidase N = molecular target: T2, Aminopeptidase N (Plasmodium falciparum FcB1/Columbia, UniProt O96935); test: malaria alanyl aminopeptidase activity blockers – biochemical, fluorogenic H-Leu-NHMec substrate, 1536-well (AID 1445); parameters: species or system Plasmodium falciparum 3D7, 3D7
T2 sequence (O96935 whole entry): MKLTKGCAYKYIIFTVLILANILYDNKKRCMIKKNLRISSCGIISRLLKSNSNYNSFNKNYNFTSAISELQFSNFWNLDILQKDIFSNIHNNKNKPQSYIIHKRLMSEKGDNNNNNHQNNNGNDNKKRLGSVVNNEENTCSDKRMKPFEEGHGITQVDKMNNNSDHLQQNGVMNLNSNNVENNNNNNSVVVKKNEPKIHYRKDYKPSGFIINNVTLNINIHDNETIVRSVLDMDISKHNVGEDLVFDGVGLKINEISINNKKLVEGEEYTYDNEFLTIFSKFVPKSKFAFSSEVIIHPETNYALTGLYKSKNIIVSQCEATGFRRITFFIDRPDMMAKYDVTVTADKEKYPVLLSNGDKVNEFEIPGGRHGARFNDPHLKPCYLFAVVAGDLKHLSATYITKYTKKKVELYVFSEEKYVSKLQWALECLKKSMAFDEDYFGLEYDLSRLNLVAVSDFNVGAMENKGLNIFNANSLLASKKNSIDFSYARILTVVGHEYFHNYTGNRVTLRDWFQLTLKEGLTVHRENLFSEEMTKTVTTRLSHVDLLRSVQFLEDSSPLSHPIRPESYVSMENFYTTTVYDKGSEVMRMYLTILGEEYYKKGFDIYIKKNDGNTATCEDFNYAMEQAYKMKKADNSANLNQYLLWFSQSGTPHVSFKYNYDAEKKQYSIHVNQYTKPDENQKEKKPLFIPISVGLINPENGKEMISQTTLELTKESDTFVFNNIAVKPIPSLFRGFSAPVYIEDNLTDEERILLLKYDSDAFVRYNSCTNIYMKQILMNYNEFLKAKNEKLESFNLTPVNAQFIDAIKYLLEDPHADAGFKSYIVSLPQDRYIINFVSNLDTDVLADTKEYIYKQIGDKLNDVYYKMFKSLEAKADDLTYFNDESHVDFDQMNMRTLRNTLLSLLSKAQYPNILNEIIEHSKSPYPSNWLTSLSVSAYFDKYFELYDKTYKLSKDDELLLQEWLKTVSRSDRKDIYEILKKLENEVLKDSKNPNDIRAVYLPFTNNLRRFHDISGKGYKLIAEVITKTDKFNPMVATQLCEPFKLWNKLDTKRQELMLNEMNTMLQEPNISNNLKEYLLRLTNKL

[12] = molecular target: T3, Heat shock factor protein 1 (Mus musculus, UniProt P38532); test: decrease of HSF1-responsive luciferase luminescence – cell-based, NIH3T3, dose retest, confirmation (AID 2382); assay type: functional;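 note: NIH3T3 fibroblasts with HSF1-driven luciferase reporter stressed by proteasome inhibitor MG132; luminescence from HSF1-driven luciferase expression after 8 hours of MG132 stress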
T3 sequence (P38532 whole entry): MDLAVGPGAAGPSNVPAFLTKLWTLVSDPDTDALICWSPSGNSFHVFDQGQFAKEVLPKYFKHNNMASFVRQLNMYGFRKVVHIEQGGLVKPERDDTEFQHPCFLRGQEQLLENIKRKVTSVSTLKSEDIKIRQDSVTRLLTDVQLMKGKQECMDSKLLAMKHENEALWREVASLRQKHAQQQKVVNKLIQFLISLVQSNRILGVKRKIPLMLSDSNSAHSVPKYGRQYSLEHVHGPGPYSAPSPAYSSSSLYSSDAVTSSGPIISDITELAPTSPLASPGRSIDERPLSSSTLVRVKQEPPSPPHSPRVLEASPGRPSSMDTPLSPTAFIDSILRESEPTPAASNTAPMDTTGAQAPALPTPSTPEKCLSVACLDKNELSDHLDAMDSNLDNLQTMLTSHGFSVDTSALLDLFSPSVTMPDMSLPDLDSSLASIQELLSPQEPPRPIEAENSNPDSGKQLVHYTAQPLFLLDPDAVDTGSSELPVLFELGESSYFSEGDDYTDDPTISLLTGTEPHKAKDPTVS

[13] = molecular target: T4, Sentrin-specific protease 1 (Homo sapiens, UniProt Q9P0U3); test: SENP1 catalytic domain blockers, concentration series – biochemical, kinetic FRET, dose response (AID 651697); assay type: functional; details: read-out: IC50_Mean
T4 sequence (Q9P0U3 whole entry): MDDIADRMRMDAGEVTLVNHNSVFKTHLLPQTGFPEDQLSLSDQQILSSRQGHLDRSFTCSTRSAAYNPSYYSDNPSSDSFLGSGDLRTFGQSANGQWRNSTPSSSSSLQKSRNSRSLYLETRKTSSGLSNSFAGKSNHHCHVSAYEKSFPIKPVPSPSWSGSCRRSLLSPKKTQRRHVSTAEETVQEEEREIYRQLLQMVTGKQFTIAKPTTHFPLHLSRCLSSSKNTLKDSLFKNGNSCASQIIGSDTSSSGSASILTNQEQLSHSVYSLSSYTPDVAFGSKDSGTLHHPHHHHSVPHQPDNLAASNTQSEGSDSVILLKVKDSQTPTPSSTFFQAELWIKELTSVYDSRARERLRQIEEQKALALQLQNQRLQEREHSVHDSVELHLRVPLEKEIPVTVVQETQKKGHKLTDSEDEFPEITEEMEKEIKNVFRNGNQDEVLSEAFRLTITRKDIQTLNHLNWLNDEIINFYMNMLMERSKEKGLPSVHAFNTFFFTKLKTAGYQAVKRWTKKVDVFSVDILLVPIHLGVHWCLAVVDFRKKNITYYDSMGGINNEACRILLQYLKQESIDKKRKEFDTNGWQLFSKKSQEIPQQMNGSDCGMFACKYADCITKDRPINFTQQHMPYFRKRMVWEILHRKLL

[14] = molecular target: T4, Sentrin-specific protease 1; test: Dose response confirmation of small molecule inhibitors of the catalytic domain of the SUMO protease, SENP1 in a FRET assay.; assay type: functional; details: read-out: IC50_Mean
[15] = antileishmanial activity on axenic amastigotes – plate reader, cherry pick, dose response (AID 651891); assay type: functional, cell-based; details: Leishmania donovani
[16] = Inhibition of Plasmodium falciparum NF54 Measured in Cell-Based System Using Plate Reader - 2138-11_Inhibitor_Dose_CherryPick_Activity.; assay type: functional
[17] = L6 myocyte viability loss – cell-based, plate reader, cherry-pick, cytotoxicity control, dose response (AID 651896); assay type: functional
[18] = Inhibition of T. cruzi Tulahuen strain amastigotes in L-6 muscle cells Measured in Cell-Based and Microorganism Combination System Using Plate Reader - 2138-03_Inhibitor_Dose_CherryPick_Activity.; assay type: functional; details: Rattus norvegicus, L6
[19] = African trypanosome bloodstream form growth inhibition – STIB900 strain, plate reader, cherry pick, dose response (AID 651893); assay type: functional, cell-based, Trypanosoma brucei rhodesiense; details: Trypanosoma brucei
[20] = intracellular Trypanosoma cruzi inhibitors in host cells – cell-based, plate reader, cherry-pick samples, set 3, dose response (AID 651818); assay type: functional;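 note: compounds incubated with infected cells for about four days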
[21] = molecular target: DNA repair protein RAD52 homolog (Homo sapiens, UniProt P43351); assay type: functional, biochemical
Sequence of DNA repair protein RAD52 homolog (P43351 whole entry): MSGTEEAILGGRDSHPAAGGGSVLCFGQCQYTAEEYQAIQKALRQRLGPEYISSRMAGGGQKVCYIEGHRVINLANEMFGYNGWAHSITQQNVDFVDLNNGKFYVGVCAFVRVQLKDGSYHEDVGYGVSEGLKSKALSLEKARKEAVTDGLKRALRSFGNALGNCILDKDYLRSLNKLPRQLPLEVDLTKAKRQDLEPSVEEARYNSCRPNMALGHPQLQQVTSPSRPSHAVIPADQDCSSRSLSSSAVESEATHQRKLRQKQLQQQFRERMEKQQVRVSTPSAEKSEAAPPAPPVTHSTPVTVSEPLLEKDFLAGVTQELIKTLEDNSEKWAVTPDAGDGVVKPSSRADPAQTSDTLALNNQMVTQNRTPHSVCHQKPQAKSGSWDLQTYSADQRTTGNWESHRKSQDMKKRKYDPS

Sequence of Fructose-bisphosphate aldolase (P9WQA3 whole entry, the tested form may be a part): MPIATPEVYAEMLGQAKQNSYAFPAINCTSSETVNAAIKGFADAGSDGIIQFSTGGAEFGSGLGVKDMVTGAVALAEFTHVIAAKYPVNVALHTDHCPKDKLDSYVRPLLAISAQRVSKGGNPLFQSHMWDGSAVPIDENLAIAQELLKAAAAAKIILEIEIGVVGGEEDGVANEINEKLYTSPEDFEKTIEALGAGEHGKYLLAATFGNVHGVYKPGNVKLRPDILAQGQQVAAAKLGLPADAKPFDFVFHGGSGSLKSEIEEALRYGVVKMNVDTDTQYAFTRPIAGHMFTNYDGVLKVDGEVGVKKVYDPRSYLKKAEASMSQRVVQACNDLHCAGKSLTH

Cc1coc2c1c(C)cc1oc(=O)c(CC(=O)NCCCN3CCCC3=O)c(C)c12
IC50 [1]: 1.43 µM (active)

Cc1ccc2nc(SCC(=O)N3CCC(C)CC3)nc(=O)n2c1
IC50 [2]: 22.9 µM (inactive) | IC50 [3]: 26.2 µM (inactive)

COc1ccc(NC(=O)COC(=O)CCCOc2ccc(Cl)cc2Cl)cc1
IC50 [4]: 83.3 µM (inactive)

c1ccc(CCNCCCOc2cccc3ccccc23)cc1
CC50 [5]: 75.9 µM (active) | IC50 [6]: 156 µM (active)

COc1cccc(NC(=O)Cn2nnc(C(=O)Nc3cc(Cl)ccc3OC)c2N)c1
IC50 [2]: 8.8 µM (active) | IC50 [3]: 5.04 µM (active)

Nc1ccc(-c2nc3ccc(N)cc3s2)cc1
AC50 [7]: > 52 µM (inactive) | AC50 [8]: 7.8 µM (active) | EC50 [9]: 17.5 µM (active) | EC50 [10]: 8.6 µM (active) | AC50 [11]: 7.01 µM (active) | CC50 [5]: 100 µM (active) | IC50 (Aminopeptidase N): 21.3 µM (active) | IC50 [6]: 70.2 µM (active)

COc1ccc(S(=O)(=O)N(CCCN2CCCC2=O)Cc2cc3c(C)cc(C)cc3nc2O)cc1
IC50 [1]: > 3.33 µM (active)

NC(=O)CCC(C(=O)O)N1C(=O)c2ccc(O)cc2C1=O (stereo not drawn)
EC50 [12]: > 195 µM (not active) | IC50 [13]: 23.9 µM (inactive) | IC50 [14]: 16.9 µM (active)

C[C@H](CO)N1C[C@H](C)[C@@H](CN(C)Cc2ccc(C(F)(F)F)cc2)Oc2c(NC(=O)c3ccncc3)cccc2C1=O
IC50 [15]: 41.4 µM (inactive) | IC50 [16]: 3.79 µM (inactive) | IC50 [17]: 36.1 µM (inactive) | IC50 [18]: 3.79 µM (inactive) | IC50 [19]: 7.22 µM (inactive) | AC50 [20]: 105 nM (active)

CCN1CCN(Cc2ccc(C(=O)Nc3ccc(C)c(NCc4cnc(NC(=O)OC)cn4)c3)cc2C(F)(F)F)CC1
AC50 [21]: 15.1 µM (active)

C[C@H]1CN([C@@H](C)CO)C(=O)c2cccc(NC(=O)c3ccncc3)c2O[C@H]1CN(C)Cc1ccc(-c2ccccc2)cc1
IC50 [15]: > 100 µM (inactive) | IC50 [16]: 3.21 µM (inactive) | IC50 [17]: 47.5 µM (inactive) | IC50 [18]: 3.21 µM (inactive) | IC50 [19]: 11.2 µM (inactive) | AC50 [20]: 80 nM (active)
